Source: patent US20240383906A1, “5-SUBSTITUTED PYRIDINE-2(1H)-KETONE COMPOUND AND USE THEREOF” (JIANGSU KANION PHARMACEUTICAL CO., LTD., priority 2021, published 2024)
Like-named read-outs stand apart in the source and are kept apart here.

Key:
[1] = system: HuPrime® gastric cancer GA3055 subcutaneous xenograft model; assay: In vivo drug efficacy in HuPrime gastric cancer GA3055 subcutaneous xenograft model; set-up: species or system female BALB/C nude mice; details: BID
From the text: • GA3055 tumor-bearing mice were provided by Crown Bioscience (Taicang) Co., Ltd.
Tumor tissue was collected from tumor-bearing mice of the HuPrime® gastric cancer GA3055 xenograft model, and cut into tumor pieces with a diameter of 2 to 3 mm for subcutaneous inoculation in the right anterior scapular region of BALB/c nude mice. When the average tumor volume in the tumor-bearing mice reached approximately 150 mm^3, the mice were randomly grouped. The coefficient of variation (CV) of the tumor volume within each group was calculated using the formula CV=SD/MTV×100%, and should be less than 30%. Administration started on the day of grouping (the tumor volume was measured on the day of grouping). The day of grouping was defined as day 0.
Before the start of administration, all animals were weighed and the tumor volume was measured using a caliper. Given that the volume of the tumor could affect the effectiveness of the treatment, a random grouping design method was used. The mice were grouped based on the volume of their tumors to ensure similar tumor volumes across different groups. Grouping was done using StudyDirector™ (version 3.1.399.19, supplier: Studylog System, Inc., S. San Francisco, CA, USA).
The “Matched distribution” random grouping method was chosen for grouping, which could reflect the smallest intergroup differences at the tumor volume level. This algorithm matched the individual measurements of all selected animals with the average value of all selected animals. Firstly, those paired animals whose average values were close to the average value of all selected animals were chosen, and then they were allocated to groups so that the average value of the group matched (or was as close as possible to) the average value of all selected animals. The final average value of the measurements of each group was as close as possible to the final average value of the other groups.
After the inoculation of tumor cells, routine monitoring included the growth of the tumor and the impact of the treatment on the normal behavior of the animals. Specific content included the activity of the experimental animals, food and water intake, weight gain or loss, and any abnormalities in their eyes, fur, and other conditions. Any clinical symptoms observed during the experiment were recorded in the original data. After the start of administration, the weight of the mice and the size of the tumor were measured twice a week. […] The original data was directly imported into the software after being measured by a balance and caliper, and any changes in the data were recorded in this software. […]
All experimental results were expressed as the mean tumor volume±SEM (standard error of the mean). […] All data were analyzed using SPSS 18.0. […]

[2] = Toxicological evaluation (with toxicokinetics) of rats administered for 21 consecutive days; details: SD, rat, in vivo, po
Method: • SD rats (male and female, 7 to 8 weeks old, Zhejiang Vital River Laboratory Animal Technology Co., Ltd.).
• In this experiment, SD rats were administered orally once a day with a test substance, a candidate drug for treating cancer, for 21 days to detect its potential toxicity. At the same time, the toxicokinetic (TK) characteristics of the compound in the animals were examined.
126 rats (63 per gender) were divided into 6 groups. In the main test administration groups, each group had 5 males and 5 females. In the TK test control group, there were 3 males and 3 females. In the administration groups, each group had 6 males and 6 females. The compound was administered once a day at doses of 1, 3, 10, 20 milligrams per kilogram per day (mg/kg/day). The control group was only given the solvent. The volume of administration was 10 mL/kg. At the start of administration, the animals were 7 to 8 weeks old, with male weights ranging from 251.11 to 308.11 grams, and female weights from 181.53 to 219.03 grams.
The evaluation items include mortality (moribund/death), clinical symptoms, body weight, food consumption, clinical pathology (hematology, serum biochemistry, coagulation), gross (necropsy) evaluation, organ weights, histopathological evaluation, and toxicokinetics. The toxicokinetic parameters include peak concentration (Cmax), time to maximum drug concentration (Tmax), and area under the drug-time curve (AUC0-last).

[3] = female, 1 mg/kg/day, female, oral 1 mg/kg/day, Day 1
[4] = female, 1 mg/kg/day, female, oral 1 mg/kg/day, Day 21
[5] = female, 3 mg/kg/day, female, oral 3 mg/kg/day, Day 1
[6] = female, 3 mg/kg/day, female, oral 3 mg/kg/day, Day 21
[7] = female, 10 mg/kg/day, female, oral 10 mg/kg/day, Day 1
[8] = female, 10 mg/kg/day, female, oral 10 mg/kg/day, Day 21
[9] = female, 20 mg/kg/day, female, oral 20 mg/kg/day, Day 1
[10] = female, 20 mg/kg/day, female, oral 20 mg/kg/day, Day 21
[11] = male, 1 mg/kg/day, male, oral 1 mg/kg/day, Day 1
[12] = male, 1 mg/kg/day, male, oral 1 mg/kg/day, Day 21
[13] = male, 3 mg/kg/day, male, oral 3 mg/kg/day, Day 1
[14] = male, 3 mg/kg/day, male, oral 3 mg/kg/day, Day 21
[15] = male, 10 mg/kg/day, male, oral 10 mg/kg/day, Day 1
[16] = male, 10 mg/kg/day, male, oral 10 mg/kg/day, Day 21
[17] = male, 20 mg/kg/day, male, oral 20 mg/kg/day, Day 1
[18] = male, 20 mg/kg/day, male, oral 20 mg/kg/day, Day 21

Cn1cc(-c2cnc(CNc3nccn4c(-c5cc(F)cc(F)c5)cnc34)cn2)ccc1=O [Compound 2]
T/C % ([1]; 5 mg/Kg, 37 days): 12.97% | TGI % ([1]; 5 mg/Kg, 37 days): 94.6% | T/C % ([1]; 10 mg/Kg): 10.89% | TGI % ([1]; 10 mg/Kg): 96.8% | Cmax [2, 3]: 1.02 µM | Tmax [2, 3]: 4 h | AUC(0-t) ([2]; female, 1 mg/kg/day, female, oral 1 mg/kg/day, Day 1, read-out: AUC0-24 h): 14.5 µM·h | Cmax [2, 4]: 1.58 µM | Tmax [2, 4]: 8 h | AUC(0-t) ([2]; female, 1 mg/kg/day, female, oral 1 mg/kg/day, Day 21, read-out: AUC0-24 h): 25.6 µM·h | Cmax [2, 5]: 2.27 µM | Tmax [2, 5]: 8 h | AUC(0-t) ([2]; female, 3 mg/kg/day, female, oral 3 mg/kg/day, Day 1, read-out: AUC0-24 h): 33.2 µM·h | Cmax [2, 6]: 4.18 µM | Tmax [2, 6]: 8 h | AUC(0-t) ([2]; female, 3 mg/kg/day, female, oral 3 mg/kg/day, Day 21, read-out: AUC0-24 h): 63.8 µM·h | Cmax [2, 7]: 3.93 µM | Tmax [2, 7]: 4 h | AUC(0-t) ([2]; female, 10 mg/kg/day, female, oral 10 mg/kg/day, Day 1, read-out: AUC0-24 h): 77.7 µM·h | Cmax [2, 8]: 8.8 µM | Tmax [2, 8]: 8 h | AUC(0-t) ([2]; female, 10 mg/kg/day, female, oral 10 mg/kg/day, Day 21, read-out: AUC0-24 h): 144 µM·h | Cmax [2, 9]: 6.17 µM | Tmax [2, 9]: 8 h | AUC(0-t) ([2]; female, 20 mg/kg/day, female, oral 20 mg/kg/day, Day 1, read-out: AUC0-24 h): 101 µM·h | Cmax [2, 10]: 10.3 µM | Tmax [2, 10]: 8 h | AUC(0-t) ([2]; female, 20 mg/kg/day, female, oral 20 mg/kg/day, Day 21, read-out: AUC0-24 h): 179 µM·h | Cmax [2, 11]: 0.97 µM | Tmax [2, 11]: 8 h | AUC(0-t) ([2]; male, 1 mg/kg/day, male, oral 1 mg/kg/day, Day 1, read-out: AUC0-24 h): 12.5 µM·h | Cmax [2, 12]: 1.62 µM | Tmax [2, 12]: 8 h | AUC(0-t) ([2]; male, 1 mg/kg/day, male, oral 1 mg/kg/day, Day 21, read-out: AUC0-24 h): 22.4 µM·h | Cmax [2, 13]: 1.88 µM | Tmax [2, 13]: 8 h | AUC(0-t) ([2]; male, 3 mg/kg/day, male, oral 3 mg/kg/day, Day 1, read-out: AUC0-24 h): 23.1 µM·h | Cmax [2, 14]: 3.5 µM | Tmax [2, 14]: 8 h | AUC(0-t) ([2]; male, 3 mg/kg/day, male, oral 3 mg/kg/day, Day 21, read-out: AUC0-24 h): 50.1 µM·h | Cmax [2, 15]: 2.96 µM | Tmax [2, 15]: 4 h | AUC(0-t) ([2]; male, 10 mg/kg/day, male, oral 10 mg/kg/day, Day 1, read-out: AUC0-24 h): 47.4 µM·h | Cmax [2, 16]: 6.87 µM | Tmax [2, 16]: 8 h | AUC(0-t) ([2]; male, 10 mg/kg/day, male, oral 10 mg/kg/day, Day 21, read-out: AUC0-24 h): 110 µM·h | Cmax [2, 17]: 4.24 µM | Tmax [2, 17]: 8 h | AUC(0-t) ([2]; male, 20 mg/kg/day, male, oral 20 mg/kg/day, Day 1, read-out: AUC0-24 h): 76.6 µM·h | Cmax [2, 18]: 7.34 µM | Tmax [2, 18]: 8 h | AUC(0-t) ([2]; male, 20 mg/kg/day, male, oral 20 mg/kg/day, Day 21, read-out: AUC0-24 h): 123 µM·h
